Patent US8129365B2, “Water-soluble, fluorescent compounds for detection of potassium ions” (The Regents of the University of California, priority 2005, dated 2012)
Entries after “also recorded” stand apart in the source; their conditions may differ.

Legend:
[1] = Fluorescence titrations of TAC-Red (spectroscopic analysis); format: physicochemical
Protocol: The TAC-Red compound was subjected to spectroscopic analysis. Fluorescence measurements were carried out by standard procedures using a FluoroMax-3 fluorimeter. Fluorescence titrations were carried out at 540 nm excitation and 574 nm emission wavelengths using aqueous solution containing about 7 μM at pH 7.0 (buffered with 5 mM HEPES) unless titrated with NaOH/HCl to other pH.
Spectra in FIG. 1, Panel b were obtained using balanced KCl/choline Cl to keep ionic strength constant at 300 mM. The titration in FIG. 1, panel c was done by adding indicated NaCl/KCl from concentrated stock solutions. The data in FIG. 1, panel d were obtained at constant ionic strength (300 mM) using NaCl or choline Cl to balance the KCl.

[2] = Stop-flow measurement of TAC-Red fluorescence response; format: physicochemical; settings: K^+ increased from 0 to 5 mM
Protocol: The TAC-Red fluorescence response was rapid when K^+ was increased from 0 to 5 mM in a stop-flow measurement (FIG. 1, panel c, inset), with greater than 90% of the fluorescence increase occurring in under 1 ms.

[3] = test system: Fisher rat thyroid epithelial cell monolayers; experiment: Transport across epithelial cell monolayers; format: in vitro ADME
Excerpt: (§1) TAC-Red fluorescence was not sensitive to divalent cations (Ca^++ or Mg^++) or various anions, or to pH in the range 6-8 (FIG. 1, panel e).

cell viability or growth = experiment: Cell viability or growth; format: cell-based
Excerpt: as §1

brain cortex ECS = experiment: TAC-Red [K^+]o measurements in brain cortex (spreading depression); format: in vivo, mice; settings: freshly cut brain slices, 5 min transdural loading with about 50 μM
Protocol: TAC-Red [K^+]o measurements in brain cortex. Wildtype and AQP4 null mice in a CD1 genetic background (30-35 g body weight/age 10-12 weeks) were used (described in Ma et al. Ma et al. J. Clin. Invest. 100, 957-962 (1997)). These mice are phenotypically normal at baseline and have normal brain architecture; however they manifest altered brain swelling in response to cytotoxic and vasogenic forms of edema. Mice were anesthetized with 2,2,2-tribromoethanol (125 mg/kg, intraperitoneal (ip)) and the head was immobilized in a standard mouse stereotactic frame. Body temperature was maintained at 36-37° C. using a heating pad. The skull was exposed by a midline skin incision. A 2.7 mm diameter circular area of the thin, semi-translucent skull bone located 0.5 mm lateral to the midline and 1 mm posterior to the bregma was removed using a microdrill under microscope to expose intact dura with underlying brain. […]
Fluorescence was measured using a 1.6× objective lens (working distance 24 mm, numerical aperture 0.21), and custom filter set for TAC-Red (HQ, Chroma). […] Fluorescence was imaged using a 14-bit 1024×1024 pixel cooled CCD camera (CoolSnap HQ, Photometrics). […]
Image analysis. […] Half-times (t1/2) for the increasing and decreasing phases of TAC-Red fluorescence were determined by exponential regression analysis. […]

Water solubility = format: physicochemical
CHO-K1 cells [4] = experiment: K^+ efflux in CHO cells measured by TAC-Red fluorescence, fluorescence microscopy; format: cell-based; settings: 10 μM pre-incubation, epifluorescence microscopy
Protocol: (§2) TAC-Red as an indicator for measurement of K^+ channel function for high-throughput screening applications. CHO-K1 cells (ATCC CCL-61) were cultured in Ham's F12 media supplemented with 10% fetal bovine serum, 100 U/ml penicillin and 100 μg/ml streptomycin at 37° C. in a 5% CO2/95% air atmosphere and used at ˜90% confluence. For measurements using epifluorescence microscopy cells were grown until reaching confluency on 18-mm diameter round glass coverslips. For fluorescence plate reader assays cells were cultured on Costar 96-well black plates with a clear flat bottom and used when just confluent. […]
Fluorescence microscopy: For most experiments cells on coverslips were incubated in 1 ml high K^+ buffer for 2 min prior to experiments. […] The washed cells were immediately placed cell-side down on the slide and fluorescence measured continuously. TAC-Red fluorescence was excited at 545±30 nm and detected through a 610±75 nm filter (570 nm dichroic) using a long working distance 25× air objective lens.
TAC-Red was used as an indicator of extracellular K^+, such that the rate of initial K^+ efflux into a 0 K^+ buffer could be measured. […]

CHO-K1 cells [5] = experiment: K^+ efflux measured by TAC-Red fluorescence, plate reader assay; format: cell-based; settings: 10 μM preincubation
Protocol: as §2
Plate reader assay: Measurements were done using a Fluostar plate reader (BMG LabTechnologies) with syringe pump for automated solution addition. […] The plate was loaded onto plate reader and after 6 s of fluorescence measurement 30 μl of TAC-Red (150 μM) in 0 K^+ buffer was added via syringe pump. TAC-Red fluorescence was excited using an HQ545/30 filter (Chroma) and emitted fluorescence was detected through a HQ585/30 filter.

| Structure (SMILES) | Effect of Na^+ on TAC-Red fluorescence vs. K^+ ([1]; 150 mM Na^+ in place of 150 mM choline^+) | Effect of Na^+ on TAC-Red fluorescence ([1]; 50 and 150 mM Na^+) | Sensitivity of fluorescence to divalent cations ([1]; Ca^++ or Mg^++) | TAC-Red fluorescence increase ([1]; K^+ concentration increasing from 0-200 mM, 540 nm excitation, 574 nm emission, pH 7.0) | K^+ sensitivity of fluorescence ([1]; K^+ in the range 0 to >100 mM) | K^+ sensitivity of fluorescence ([1]; K^+ range 0-40 mM expected in the brain ECS) | K^+-to-Na^+ selectivity ratio ([1]; at 50 mM) | Specificity in titrations with monovalent cations ([1]; monovalent cations) | Sensitivity of fluorescence to pH ([1]; pH in the range 6-8) | Sensitivity of fluorescence to various anions ([1]; various anions) | Share of fluorescence increase occurring in under 1 ms [2] | Membrane permeability [3] | Transport across cell monolayers ([3]; in 6 hours) [%] | Effect on cell viability or growth (cell viability or growth) | Depth of TAC-Red staining beneath the brain surface (brain cortex ECS) [μm] | Water solubility (Water solubility) | Effect on K^+ efflux (CHO-K1 cells [4]) | Effect on K^+ efflux (CHO-K1 cells [5]) |
| --- | --- | --- | --- | --- | --- | --- | --- | --- | --- | --- | --- | --- | --- | --- | --- | --- | --- | --- |
| COCCOc1cc(-c2c3ccc(=[N+](C)C)cc-3oc3cc(N(C)C)ccc23)ccc1N1CCOc2cc(C)ccc2N2CCOCCOCCN(CCOCCOCC2)c2ccc(C)cc2OCC1.[Cl-] [TAC-Red, {6-Dimethylamino-9-[4-(6,7,9,10,12,13,20,21,23,24-decahydro-2,17-dimethyl-5,14-(ethanoxyethanoxyethano)-5H,14H,22H-dibenzo[h,q][1,4,10,16,7,13,19]tetraoxatriazacyclo-heneicosin-22-yl)-3-(2-methoxyethoxy)phenyl]xanthen-3-ylidene}dimethylammonium chloride] | did not affect | increased slightly | not sensitive | more than 23 fold | highly sensitive | excellent K^+ sensitivity | about 37 | specificity for K^+, Rb^+ and Cs^+ over Na^+ and Li^+ | not sensitive | not sensitive | greater than 90% | membrane impermeant; also recorded: membrane-impermeable | < 1 | did not affect | > 500 | water soluble | – | – |
| CC(C)[C@@H]1NC(=O)[C@H](C)OC(=O)[C@@H](C(C)C)NC(=O)[C@@H](C(C)C)OC(=O)[C@H](C(C)C)NC(=O)[C@H](C)OC(=O)[C@@H](C(C)C)NC(=O)[C@@H](C(C)C)OC(=O)[C@H](C(C)C)NC(=O)[C@H](C)OC(=O)[C@@H](C(C)C)NC(=O)[C@@H](C(C)C)OC1=O [valinomycin] | – | – | – | – | – | – | – | – | – | – | – | – | – | – | – | – | increased K^+ efflux | increased K^+ efflux |
